Measured values: PMC11550483 (2024)

Biological target: SARS2 M^pro (Severe acute respiratory syndrome coronavirus 2, UniProt P0DTD1, P3395H)
Assay type: biochemical, SARS-CoV-2

SMILES	% inhibition (20 µM) biochemical	M^pro inhibition activity (in words)
O=C(C[S+]([O-])c1ccc(C(F)(F)F)cc1[N+](=O)[O-])OCc1ccccc1 (centres unmarked) [MWAC-0001780, [O-][N+](=O)c1cc(ccc1S(=O)CC(=O)OCc2ccccc2)C(F)(F)F]	4%	–
O=C(Nc1cc([N+](=O)[O-])ccc1F)c1cccc(F)c1 [MWAC-0001808, [O-][N+](=O)c1ccc(F)c(NC(=O)c2cccc(F)c2)c1]	1.53%	–
COc1cccc(-c2cc(C(=O)N3CCCCC3C)no2)c1 (centres unmarked) [MWAC-0001739, COc1cccc(c1)c2onc(c2)C(=O)N3CCCCC3C]	2.35%	–
C=CCN1C(=O)C(O)(CC(=O)c2cccc(OC)c2)c2cc(Br)ccc21 (centres unmarked) [MWAC-0001778, COc1cccc(c1)C(=O)CC2(O)C(=O)N(CC=C)c3ccc(Br)cc23]	2.82%	–
Cc1cc(S(=O)(=O)NC(C)C)ccc1OCC(=O)Nc1cccc([N+](=O)[O-])c1 [MWAC-0001775, CC(C)NS(=O)(=O)c1ccc(OCC(=O)Nc2cccc(c2)[N+](=O)[O-])c(C)c1]	3.17%	–
Cc1cccc(OCCNC(=O)C(C)Cl)c1 (centres unmarked)	–	lost all activity
CC(C)c1cc(C(=O)Nc2ccc(Br)cc2)no1 [MWAC-0001748, CC(C)c1onc(c1)C(=O)Nc2ccc(Br)cc2]	6%	–
COC(=O)c1c(NC(=O)CCl)sc(C(=O)N2CCOCC2)c1C [MWAC-0001850, COC(=O)c1c(C)c(sc1NC(=O)CCl)C(=O)N2CCOCC2]	74%	–
Cc1cc(C(=O)CCl)c(C)n1Cc1ccco1 [MWAC-0001817, Cc1cc(C(=O)CCl)c(C)n1Cc2occc2]	62%	–
COc1ccc(OC)c(NC(=O)CSc2nc3cc4c(cc3cc2C#N)OCCO4)c1 [MWAC-0001834, COc1ccc(OC)c(NC(=O)CSc2nc3cc4OCCOc4cc3cc2C#N)c1]	5.66%	–
CC1CCN(C(=O)/C=C/c2cccc3ccccc23)CC1 [MWAC-0001755, CC1CCN(CC1)C(=O)\C=C\c2cccc3ccccc23]	4.32%	–
S=C(c1ccc(-c2cccc(Cl)c2)o1)N1CCCCC1 [MWAC-0001879, Clc1cccc(c1)c2oc(cc2)C(=S)N3CCCCC3]	0%	–
CCC(=O)OCC(=O)NCc1ccc2c(c1)OCO2 [MWAC-0001887, CCC(=O)OCC(=O)NCc1ccc2OCOc2c1]	0%	–
Cc1ccc(OCCN2C(=O)C(=O)c3ccccc32)cc1 [MWAC-0001827, Cc1ccc(OCCN2C(=O)C(=O)c3ccccc23)cc1]	4.54%	–
Cc1ccc2nc(-c3ccc(SCC(=O)Nc4nc(C)cs4)nc3)[nH]c2c1 [MWAC-0001838, Cc1ccc2nc([nH]c2c1)c3ccc(SCC(=O)Nc4nc(C)cs4)nc3]	2.56%	–
O=C(CC(SCc1ccco1)c1ccc(Cl)cc1)c1cccs1 (centres unmarked) [MWAC-0001874, Clc1ccc(cc1)C(CC(=O)c2cccs2)SCc3occc3]	0%	–
CC(=O)Nc1ccc(OS(=O)(=O)c2ccc(Cl)c3ccccc23)cc1 [MWAC-0001803, CC(=O)Nc1ccc(OS(=O)(=O)c2ccc(Cl)c3ccccc23)cc1]	1.42%	–
Cc1cc(CNC(=O)CCl)cc(C)c1O [MWAC-0001858, Cc1cc(CNC(=O)CCl)cc(C)c1O]	45%	–
CCCOc1ccc(CN2C(=O)C(=O)c3ccccc32)cc1 [MWAC-0001830, CCCOc1ccc(CN2C(=O)C(=O)c3ccccc23)cc1]	5%	–
COc1ccc(-c2cc(=O)c3ccccc3s2)cc1 [MWAC-0001878, COc1ccc(cc1)C2=CC(=O)c3ccccc3S2]	0%	–
CCOC(=O)c1c(NC(=O)CCl)sc2c1CC(C)(C)NC2(C)C [MWAC-0001854, CCOC(=O)c1c(NC(=O)CCl)sc2c1CC(C)(C)NC2(C)C]	98%	–

SMILES	% inhibition (20 µM) biochemical	M^pro inhibition activity (in words)
CC(=O)N(/N=C1\Sc2ccccc2C1=O)c1ccccc1C [MWAC-0001741, CC(=O)N(\N=C\1/Sc2ccccc2C1=O)c3ccccc3C]	36%	–
Cc1ccc(-c2cn3ccc4ccccc4c3n2)cc1 [MWAC-0001723, Cc1ccc(cc1)c2cn3ccc4ccccc4c3n2]	8%	–
COCCNc1nc2cc(C)ccc2[nH]1 [MWAC-0001822, COCCNc1nc2cc(C)ccc2[nH]1]	3%	–
CN1C(=O)C(O)(CC(=O)c2ccco2)c2cc(Cl)ccc21 (centres unmarked) [MWAC-0001773, CN1C(=O)C(O)(CC(=O)c2occc2)c3cc(Cl)ccc13]	0.63%	–
CCN1C(=O)C(O)(CC(=O)c2ccco2)c2cc(Br)ccc21 (centres unmarked) [MWAC-0001784, CCN1C(=O)C(O)(CC(=O)c2occc2)c3cc(Br)ccc13]	3%	–
O=C(c1cccnc1)N1CCN(c2ccc(Cl)c(Cl)c2)CC1 [MWAC-0001776, Clc1ccc(cc1Cl)N2CCN(CC2)C(=O)c3cccnc3]	47%	–
Cc1cc(I)cnc1NC(=S)NC(=O)c1ccco1 [MWAC-0001789, Cc1cc(I)cnc1NC(=S)NC(=O)c2occc2]	2.41%	–
Cc1cccc(NC(=O)COc2ccc(Br)cc2/C=N/O)c1 [MWAC-0001791, Cc1cccc(NC(=O)COc2ccc(Br)cc2\C=N\O)c1]	0.745%	–
O=[N+]([O-])c1cc(C(F)(F)F)ccc1NCCNS(=O)(=O)Cc1ccccc1 [MWAC-0001800, [O-][N+](=O)c1cc(ccc1NCCNS(=O)(=O)Cc2ccccc2)C(F)(F)F]	3.51%	–
COc1ccc(CC(=O)NCc2ccccc2Cl)cc1 [MWAC-0001807, COc1ccc(CC(=O)NCc2ccccc2Cl)cc1]	1%	–
CC1=C(C(=O)OC(C)C)C(c2ccsc2)C2=C(CC(c3cccs3)CC2=O)N1 (centres unmarked) [MWAC-0001728, CC(C)OC(=O)C1=C(C)NC2=C(C1c3ccsc3)C(=O)CC(C2)c4cccs4]	0%	–
Cc1cccc(/N=C2/NC(=O)/C(=C\c3ccc(N(C)C)cc3)S2)c1 [MWAC-0001734, CN(C)c1ccc(\C=C/2\S\C(=N/c3cccc(C)c3)\NC2=O)cc1]	9%	–
CCc1ccc(C(=O)Cn2c(C)nc([N+](=O)[O-])c2Br)cc1 [MWAC-0001880, CCc1ccc(cc1)C(=O)Cn2c(C)nc(c2Br)[N+](=O)[O-]]	0%	–
CC(=O)C1=C(O)C(=O)N(c2ccc(Br)cn2)C1c1ccc(Cl)cc1 (centres unmarked) [MWAC-0001809, CC(=O)C1=C(O)C(=O)N(C1c2ccc(Cl)cc2)c3ccc(Br)cn3]	16%	–
CCOc1ccccc1N1CCN(C(=O)c2ccc(Cl)c([N+](=O)[O-])c2)CC1 [MWAC-0001782, CCOc1ccccc1N2CCN(CC2)C(=O)c3ccc(Cl)c(c3)[N+](=O)[O-]]	0.51%	–
Cc1cc(=O)oc2c(C)c(OCc3ccccc3)ccc12 [MWAC-0001732, CC1=CC(=O)Oc2c(C)c(OCc3ccccc3)ccc12]	7%	–
CCCN1C(=O)C(O)(CC(=O)c2cc(OC)ccc2OC)c2cc(Br)ccc21 (centres unmarked) [MWAC-0001752, CCCN1C(=O)C(O)(CC(=O)c2cc(OC)ccc2OC)c3cc(Br)ccc13]	33%	–
O=C1NC(=O)C(=Cc2cc(O)ccc2Br)C(=O)N1 [MWAC-0001754, Oc1ccc(Br)c(C=C2C(=O)NC(=O)NC2=O)c1]	21%	–
CCOC(=O)c1ccc(NC(=O)CSc2nnc(-c3ccccc3OCC)o2)cc1 [MWAC-0001774, CCOC(=O)c1ccc(NC(=O)CSc2oc(nn2)c3ccccc3OCC)cc1]	5.5%	–
CCCCS(=O)(=O)N(O)c1ccc(Cl)cc1 [MWAC-0001856, CCCCS(=O)(=O)N(O)c1ccc(Cl)cc1]	4%	–
